From patent US6533767B2, “Methods for enhancing fluid flow through an obstructed vascular site, and systems and kits for use in practicing the same” (Corazon Technologies, Inc., priority 2000, dated 2003) come the findings set out here.

Series [1] can be described thus: Solution containing surfactant and acid components, effect on cholesterol crystals. The series is classed as physicochemical. The following applies: SDS 1%; combination with 0.1N HCl pH 1.0, isotonic (300 mOsmol). The procedure:
A solution of sodium dodecyl sulfate (SDS) (a.k.a. sodium lauryl sulfate) (1%) and 0.1N hydrochloric acid (pH 1.0) made isotonic (300 mOsmol) with sodium chloride was prepared and compared with a solution of sodium dodecyl sulfate solution (1%). […] This combination solution can be buffered with sodium bicarbonate (NaHCO3) in the same manner that the hydrochloric acid solution is buffered with NaHCO3, as described in the specification supra.

Series [2] in a line: In vitro cholesterol dissolution. The series is classed as physicochemical. Particulars: for effectiveness in solvating / dissolving crystalline cholesterol: 0.1 grams cholesterol in 50 mLs 1% surfactant solution; for cholesterol crystal presence or absence and crystal morphology (light microscopy): 0.1 grams cholesterol in 50 mLs surfactant solution, agitation up to 1 hour, 200x magnification, time as in value. The procedure:
Dissolution of cholesterol was examined in different solutions of bile salts, non-ionic, and ionic surfactants. Solutions of bile salts were prepared as follows: 0.5% solutions of cholic, dehydrocholic, deoxycholic, lithocholic acids were made by dissolving 0.5 grams of the free acid powders in 100 mL H2O previously adjusted to pH=12 with sodium hydroxide. Solutions were then adjusted to pH=7.5 with HCl. 1% surfactant solutions were made by dilution of concentrated stock solutions: Benzalkonium chloride, nonoxynol-9, sodium dodecyl sulfate, were prepared immediately prior to use. Dissolution studies were performed by adding 0.1 grams cholesterol powdered crystals to 50 mLs of the above surfactants with agitation on a rocker table for 1 hour. Solutions were then examined under light microscopy 200× magnification and cholesterol crystal presence or absence and crystal morphology recorded for each solution.

The nature of series [3]: In vitro thrombus removal in cadaveric femoral arteries. The following applies: 1% solution, approximately 60 cc per treatment over a 10 minute interval. The method, then:
Fresh cadaveric femoral arteries which contained soft clots partially occluding the. vessel lumen were used. […] Vessels were treated with a 1% surfactant solution of sodium dodecyl sulfate (SDS, Sigma chemicals), prepared immediately prior to use. Treatment consisted of injection of surfactant through a 35 cc male luer syringe and flow characteristics recorded.

For `CCCCCCCCCCCCOS(=O)(=O)[O-].[Na+]` [Sodium dodecyl sulfate, sodium dodecyl sulfate], in series [1], the “micelle formation around cholesterol crystals” value is reported as “formed micelles around cholesterol crystals making the cholesterol crystals water soluble”. In addition, in series [2], the “effectiveness in solvating / dissolving crystalline cholesterol” value is “most effective in solvating”; the “cholesterol crystal presence or absence and crystal morphology (light microscopy)” value is listed as “no free crystals were observed 5 minutes after cholesterol addition”. Also, in series [3], the “flow through vessel after treatment” value is reported as “Flow was reestablished in all samples” and the “removal of soft thrombus” value is given as “effective in removing soft thrombus from occluded femoral arteries”.
Consider Benzalkonium chloride, for which, in series [2], the “effectiveness in solvating / dissolving crystalline cholesterol” value is “appeared to dissolve most of the crystalline cholesterol”; the “cholesterol crystal presence or absence and crystal morphology (light microscopy)” value is recorded as “still crystals apparent after 10 minutes”. In series [2] (by 1 hour), the crystal dissolution entry is “approximately 50%”.
Consider nonoxynol-9, for which the “cholesterol crystal presence or absence and crystal morphology (light microscopy)” value in series [2] was “little or no observable effect on the crystal structure”.
